{"source": "patent US20110098177A1", "about": "“METHODS AND COMPOSITIONS OF PLANT MICRONUTRIENTS” (NOVUS INTERNATIONAL INC., priority 2006, published 2011)", "type_in_all_cases": "in vivo", "key": {"[1]": {"tested_on": "Florida-47 tomato", "assay": "Foliar nutrient concentration at 6 WAT, greenhouse Fall 2007, tomato", "details": "Example 2; crop not specified (tomato / bell pepper)", "method": "The following experiments were performed in a green house during the fall of 2007 at GCREC, Balm, University of Florida. Fifteen products, at 3 different application rates were examined. The plot size was 2-gallon pots. Crop set-up, procedures and variables were as follows.\nTransplants of ‘Florida-47’ tomato and ‘Aristotle’ bell pepper plants in the 4-true leaf stage (about 6 inches tall) were planted in 2-gal pots on Aug. 27, 2007. Pots were filled with a commercially available planting medium. This medium was selected based on the mineral composition of the products to be applied without providing significant nutritional inputs to the crops. Irrigation was provided with drip lines delivering between 0.50 and 0.33 gal/day/pot for tomato and bell pepper, respectively, and the crops were irrigated three times per day. No foliar pesticides were necessary. […]\nMedium nutrient concentration was determined 1 week before treatment. […] The foliar tissue analysis was performed at 6 WAT and the concentration of N, P, K, Mg, Ca, S, B, Zn, Mn, Fe, and Cu was determined by a commercial laboratory. Plant toxicity was determined at 4 WAT by using a 0-10 visual scale, where 0=no visible damage and 10=total plant death. […]\nData were analyzed using a general linear model, and means were separated using orthogonal contrasts at the 5% significance level."}, "[2]": {"tested_on": "Tygress tomato plants", "assay": "Foliar nutrient concentration at 7 WAT, greenhouse tomato spring 2009 (Examples 13-15)", "details": "tomato leaves 1 week after treatment", "summary_of_the_method": "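Greenhouse 'Tygress' tomatoes in micronutrient-deficient medium received foliar treatments at 6 WAT (200 mL/plant, deionized water plus non-ionic surfactant). Newest non-applied leaves sampled at 7 WAT and analysed for N, P, K, Mg, Ca, B, Zn, Mn, Fe and Cu. Randomized complete block design with 6 replications; means separated by LSD at 5%.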"}, "[3]": {"tested_on": "Tygress tomato plants", "assay": "Yields of tomato fruits, greenhouse spring 2009 (Examples 13-15)", "summary_of_the_method": "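Greenhouse 'Tygress' tomatoes in micronutrient-deficient medium received foliar Cu/Fe source treatments at 6 WAT (200 mL/plant, deionized water plus non-ionic surfactant). Marketable fruit was harvested three times from 10 WAT and graded by size. RCBD, 6 replications, GLM with LSD at 5%.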"}, "[4]": {"tested_on": "soybean plants (Asgrow 1102)", "assay": "ICP-MS micronutrient content of soybean trifoliates (Examples 11-12)", "design": "Micronutrient content from ICP-MS analysis: Mn: unit not given here", "details": "for Micronutrient content from ICP-MS analysis: Fe: in ppm (unit assumed)", "method": "The following experiments were performed on soybean plants growing in open-field plots during the summer and fall of 2008 at two production fields in West Central Minnesota. […] Trial design was a randomized complete block with 4 replications. Each plot measured 10' by 30' and consisted of five 22'' rows. Although all five rows of each plot were treated, only the center three rows (25' in length) of each plot were machine harvested. The two fields selected for these studies had historical Iron Deficiency Chlorosis (IDC) issues. The two field sites were planted by farmers with elite Roundup Ready commodity type soybean varieties with IDC tolerance (Asgrow 1102, Monsanto Corp.). […] BIOX-M was applied at a rate of 1.12 kg Mn/ha. […] All V4 treatments were applied in 10 gallons per acre of water with a backpack sprayer with a hand boom designed to “band” apply product directly to the plant row. Three nozzles with ConeJet TXVS-2 tips were oriented on either side and over the top of each row. This maximized the applied product to the plant tissue itself and minimized application of product to the soil surface. […] The V6 treatments (where applicable) were applied in 20 gallons per acre of water to increase the suspension of the BIOX products. […] The harvested plants were dried, ground, and subjected to Inductively Coupled Plasma-Mass Spectrometry (ICP-MS) analysis to determine plant micronutrient content."}}, "data": [{"compound": "CSCCC(O)C(=O)[O-].CSCCC(O)C(=O)[O-].[Cu+2]", "note": "(stereo not shown) [BIOX-Cu, Cu-HMTBA]", "values": [{"measurement": "Foliar Cu relative to the non-Cu control", "setting": "[1]", "result": "about 4 times"}, {"measurement": "Foliar Cu concentration", "setting": "[2]; Cu 0.14 lb/acre", "result": 72, "unit": "ppm"}, {"measurement": "Foliar Cu concentration", "setting": "[2]; Cu 0.28 lb/acre", "result": 91, "unit": "ppm"}, {"measurement": "Foliar Cu concentration", "setting": "[2]; Cu 0.46 lb/acre", "result": 208, "unit": "ppm"}, {"measurement": "Foliar Cu concentration", "setting": "[2]; Cu 0.55 lb/acre", "result": 397, "unit": "ppm"}, {"measurement": "Marketable tomato yields compared to non-treated control, statement", "setting": "[3]; BIOX-Cu at 0.46 and 0.55 lb/acre, Cu-sulfate at 0.8 lb/acre, BIOX-EDC at 0.4 lb/acre", "result": "did not alter marketable yields relative to the non-treated control"}, {"measurement": "Marketable tomato yields compared to non-treated control, statement", "setting": "[3]; BIOX-Cu at the 0.14 and 0.28 lb/acre levels", "result": "significantly increased marketable tomato yields"}, {"measurement": "Marketable yield", "setting": "[3]; Cu 0.14 lb/acre", "result": 2350, "unit": "a g/plant"}, {"measurement": "Marketable yield", "setting": "[3]; Cu 0.28 lb/acre", "result": 2500, "unit": "a g/plant"}, {"measurement": "Marketable yield", "setting": "[3]; Cu 0.46 lb/acre", "result": 1250, "unit": "b g/plant"}, {"measurement": "Marketable yield", "setting": "[3]; Cu 0.55 lb/acre", "result": 1700, "unit": "b g/plant"}]}, {"compound": "CSCCC(O)C(=O)[O-].CSCCC(O)C(=O)[O-].[Mn+2]", "note": "(stereo not shown) [BIOX-M, Mn-HMTBA]", "values": [{"measurement": "Micronutrient content from ICP-MS analysis: Mn", "setting": "[4]; 7.0 kg/ha, V4, Foxhome", "result": 78.31}, {"measurement": "Micronutrient content from ICP-MS analysis: Fe", "setting": "[4]; 7.0 kg/ha, V4, Foxhome", "result": 90.52}, {"measurement": "Micronutrient content from ICP-MS analysis: Mn", "setting": "[4]; 7.0 kg/ha, V4, Renville", "result": 88.64}, {"measurement": "Micronutrient content from ICP-MS analysis: Fe", "setting": "[4]; 7.0 kg/ha, V4, Renville", "result": 99.40}]}, {"compound": "CSCCC(O)C(=O)[O-].CSCCC(O)C(=O)[O-].[Zn+2]", "note": "(stereo not shown) [BIOX-Z, Zn-HMTBA]", "values": [{"measurement": "Foliar Zn concentration relative to the non-Zn control", "setting": "[1]", "result": "approximately 3 times"}]}, {"compound": "Fe-HMTBA [BIOX-Fe]", "values": [{"measurement": "Micronutrient content from ICP-MS analysis: Mn", "setting": "[4]; 0.558 kg/ha, V4, V6, Foxhome", "result": 76.21}, {"measurement": "Micronutrient content from ICP-MS analysis: Fe", "setting": "[4]; 0.558 kg/ha, V4, V6, Foxhome", "result": 88.30}, {"measurement": "Micronutrient content from ICP-MS analysis: Mn", "setting": "[4]; 0.558 kg/ha, V4, V6, Renville", "result": 96.44}, {"measurement": "Micronutrient content from ICP-MS analysis: Fe", "setting": "[4]; 0.558 kg/ha, V4, V6, Renville", "result": 96.26}, {"measurement": "Micronutrient content from ICP-MS analysis: Mn", "setting": "[4]; 0.558 kg/ha, V4, Foxhome", "result": 81.82}, {"measurement": "Micronutrient content from ICP-MS analysis: Fe", "setting": "[4]; 0.558 kg/ha, V4, Foxhome", "result": 83.38}, {"measurement": "Micronutrient content from ICP-MS analysis: Mn", "setting": "[4]; 0.558 kg/ha, V4, Renville", "result": 88.29}, {"measurement": "Micronutrient content from ICP-MS analysis: Fe", "setting": "[4]; 0.558 kg/ha, V4, Renville", "result": 98.39}, {"measurement": "Micronutrient content from ICP-MS analysis: Mn", "setting": "[4]; 1.12 kg/ha, V4, V6, Foxhome", "result": 87.67}, {"measurement": "Micronutrient content from ICP-MS analysis: Fe", "setting": "[4]; 1.12 kg/ha, V4, V6, Foxhome", "result": 83.35}, {"measurement": "Micronutrient content from ICP-MS analysis: Mn", "setting": "[4]; 1.12 kg/ha, V4, V6, Renville", "result": 89.00}, {"measurement": "Micronutrient content from ICP-MS analysis: Fe", "setting": "[4]; 1.12 kg/ha, V4, V6, Renville", "result": 98.74}, {"measurement": "Micronutrient content from ICP-MS analysis: Mn", "setting": "[4]; 1.12 kg/ha, V4, Foxhome", "result": 72.70}, {"measurement": "Micronutrient content from ICP-MS analysis: Fe", "setting": "[4]; 1.12 kg/ha, V4, Foxhome", "result": 84.93}, {"measurement": "Micronutrient content from ICP-MS analysis: Mn", "setting": "[4]; 1.12 kg/ha, V4, Renville", "result": 76.15}, {"measurement": "Micronutrient content from ICP-MS analysis: Fe", "setting": "[4]; 1.12 kg/ha, V4, Renville", "result": 97.42}, {"measurement": "Foliar Fe concentration", "setting": "[2]; Fe 0.28 lb/acre", "result": 249, "unit": "ppm"}, {"measurement": "Foliar Fe concentration", "setting": "[2]; Fe 0.57 lb/acre", "result": 388, "unit": "ppm"}, {"measurement": "Foliar Fe concentration", "setting": "[2]; Fe 1.12 lb/acre", "result": 517, "unit": "ppm"}, {"measurement": "Foliar Fe concentration", "setting": "[2]; Fe 1.74 lb/acre", "result": 453, "unit": "ppm"}, {"measurement": "Foliar Fe concentration", "setting": "[2]; Fe 2.3 lb/acre", "result": 383, "unit": "ppm"}, {"measurement": "Marketable tomato yields compared to non-treated control, statement", "setting": "[3]; BIOX-Fe at all levels, Fe-sulfate at 2.0 lb/acre, BIOX-EDF at 0.3 lb/acre", "result": "significantly higher marketable tomato yields than the non-treated control"}, {"measurement": "Marketable yield", "setting": "[3]; Fe 0.28 lb/acre", "result": 1750, "unit": "g/plant"}, {"measurement": "Marketable yield", "setting": "[3]; Fe 0.57 lb/acre", "result": 1900, "unit": "g/plant"}, {"measurement": "Marketable yield", "setting": "[3]; Fe 1.12 lb/acre", "result": 2100, "unit": "g/plant"}, {"measurement": "Marketable yield", "setting": "[3]; Fe 1.74 lb/acre", "result": 1900, "unit": "g/plant"}, {"measurement": "Marketable yield", "setting": "[3]; Fe 2.3 lb/acre", "result": 2400, "unit": "g/plant"}]}]}
